Values after ≈ are worked out from the molar mass of the structure shown. Active and inactive are the calls of the source. The rule behind the calls is not given here.
Experiments:
Staphylococcus aureus [1] = test: Antibacterial activity against fluoroquinolone-sensitive methicillin resistant Staphylococcus aureus ATCC 33591 incubated for 16 to 18 hrs by absorbance based analysis; assay type: functional; settings: time 16-18 hrs
Escherichia coli = test: Antibacterial activity against Escherichia coli ATCC 25922 incubated for 16 to 18 hrs by absorbance based analysis; assay type: functional; settings: time 16-18 hrs
Staphylococcus aureus [2] = test: Antibacterial activity against fluoroquinolone/methicillin resistant Staphylococcus aureus Mu50 incubated for 16 to 18 hrs by absorbance based analysis; assay type: functional; settings: time 16-18 hrs
Staphylococcus aureus [3] = test: Antibacterial activity against fluoroquinolone-sensitive methicillin resistant Staphylococcus aureus USA500 incubated for 16 to 18 hrs by absorbance based analysis; assay type: functional; settings: time 16-18 hrs
[4] = Metabolic stability in rat liver microsomes assessed as elimination half life at 1 uM by LC-MS/MS analysis; assay type: ADME, Microsome; settings: read-out: beta t1/2
[5] = Metabolic stability in rat liver microsomes assessed as compound remaining at 1 uM measured after 60 mins by LC-MS/MS analysis; assay type: ADME, Microsome; settings: read-out: Stability
[6] = Metabolic stability in human liver microsomes assessed as compound remaining at 1 uM measured after 60 mins by LC-MS/MS analysis; assay type: ADME, Microsome; settings: read-out: Stability
[7] = Metabolic stability in human liver microsomes assessed as elimination half life at 1 uM by LC-MS/MS analysis; assay type: ADME, Microsome; settings: read-out: beta t1/2
[8] = Metabolic stability in rat liver microsomes assessed as microsomal intrinsic clearance at 1 uM by LC-MS/MS analysis; assay type: ADME, Microsome; settings: read-out: CLH
[9] = Metabolic stability in human liver microsomes assessed as drug elimination rate constant at 1 uM by LC-MS/MS analysis; assay type: ADME, Microsome
[10] = Metabolic stability in human liver microsomes assessed as microsomal intrinsic clearance at 1 uM by LC-MS/MS analysis; assay type: ADME, Microsome; settings: read-out: CLH
[11] = Metabolic stability in rat liver microsomes assessed as drug elimination rate constant at 1 uM by LC-MS/MS analysis; assay type: ADME, Microsome
Staphylococcus aureus [12] = test: Antibacterial activity against methicillin resistant Staphylococcus aureus ATCC 33591 measured after 15 passages; assay type: functional
A549 = test: Cytotoxicity against human A549 cells assessed as reduction in cell viability at 100 uM incubated for 24 hrs by CCK-8 assay; assay type: toxicity, cell-based; settings: a549, 24 h
[13] = Metabolic stability in human liver microsomes assessed as liver intrinsic clearance at 1 uM by LC-MS/MS analysis; assay type: ADME, Microsome; settings: read-out: CLH
HEK293 = test: Cytotoxicity against HEK293 cells assessed as reduction in cell viability at 100 uM incubated for 24 hrs by CCK-8 assay; assay type: toxicity, cell-based; settings: human, hek293, 24 h
[14] = Metabolic stability in rat liver microsomes assessed as liver intrinsic clearance at 1 uM by LC-MS/MS analysis; assay type: ADME, Microsome; settings: read-out: CLH

| Structure (SMILES) | MIC (Staphylococcus aureus [1]) [µg/mL] | MIC (Escherichia coli) [µg/mL] | MIC (Staphylococcus aureus [2]) [µg/mL] | MIC (Staphylococcus aureus [3]) [µg/mL] | also measured |
| --- | --- | --- | --- | --- | --- |
| O=C(O)c1cn(C2CC2)c2cc(Nc3nccc(Cc4ccc(F)c(F)c4)n3)ccc2c1=O | 0.5 (≈ 1.12 µM) | > 64 | 1.56 (≈ 3.48 µM) | 0.78 (≈ 1.74 µM) | – |
| O=C(O)c1cn(C2CC2)c2cc(Nc3nccc(Cc4ccc(Cl)cc4)n3)ccc2c1=O | 0.5 (≈ 1.12 µM) | > 64 | 1.56 (≈ 3.49 µM) | 1.56 (≈ 3.49 µM) | – |
| N#Cc1ccccc1Cc1ccnc(Nc2cc3c(cc2F)c(=O)c(C(=O)O)cn3C2CC2)n1 | 8 (≈ 17.6 µM) | > 64 | – | – | – |
| O=C(O)c1cn(C2CC2)c2cc(Nc3nccc(Cc4ccccc4Cl)n3)c(F)cc2c1=O | 2 (≈ 4.3 µM) | > 64 | 6.25 (≈ 13.4 µM) | 6.25 (≈ 13.4 µM) | – |
| Cc1ccccc1Cc1ccnc(Nc2cc3c(cc2F)c(=O)c(C(=O)O)cn3C2CC2)n1 | 2 (≈ 4.5 µM) | > 64 | – | – | – |
| Cc1ncc2n1-c1ccc(Cl)cc1C(c1ccccc1F)=NC2 [MIDAZOLAM] | – | – | – | – | half-life at 1 µM [4]: 2.58 min; remaining at 1 h, 1 µM [5]: 0.48%; remaining at 1 h, 1 µM [6]: 0.691%; half-life at 1 µM [7]: 2.77 min; microsomal CLint at 1 µM [8]: 1350 µL/min/mg; k el at 1 µM [9]: 0.00417 s⁻¹; microsomal CLint at 1 µM [10]: 1250 µL/min/mg; k el at 1 µM [11]: 0.00448 s⁻¹ |
| O=C(O)c1cn(C2CC2)c2cc(Nc3nccc(Cc4ccc(F)c(F)c4)n3)c(F)cc2c1=O | 1 (≈ 2.14 µM) | > 64 | 6.25 (≈ 13.4 µM) | 6.25 (≈ 13.4 µM) | – |
| O=C(O)c1cn(C2CC2)c2cc(Nc3nccc(Cc4ccccc4)n3)c(F)cc2c1=O | 4 (≈ 9.29 µM) | > 64 | – | – | – |
| Cc1ccc(Oc2ccnc(Nc3ccc4c(=O)c(C(=O)O)cn(C5CC5)c4c3)n2)cc1C | 0.5 (≈ 1.13 µM) | > 64 | 0.39 (≈ 0.881 µM) | 0.39 (≈ 0.881 µM) | half-life at 1 µM [4]: 8.7 min; half-life at 1 µM [7]: 25.9 min |
| O=C(O)c1cn(C2CC2)c2cc(Nc3nccc(Cc4ccccc4Cl)n3)ccc2c1=O | 0.5 (≈ 1.12 µM) | > 64 | 3.12 (≈ 6.98 µM) | 3.12 (≈ 6.98 µM) | – |
| Cc1ccc(Cc2ccnc(Nc3cc4c(cc3F)c(=O)c(C(=O)O)cn4C3CC3)n2)c(C)c1 | 1 (≈ 2.18 µM) | > 64 | 6.25 (≈ 13.6 µM) | 6.25 (≈ 13.6 µM) | – |
| COc1cccc(Cc2ccnc(Nc3cc4c(cc3F)c(=O)c(C(=O)O)cn4C3CC3)n2)c1 | 8 (≈ 17.4 µM) | > 64 | – | – | – |
| O=C(O)c1cn(C2CC2)c2cc(N3CCNCC3)c(F)cc2c1=O [CIPROFLOXACIN] | 0.25 (≈ 0.754 µM) | – | – | 0.39 (≈ 1.18 µM) | – |
| Cc1ccc(Cc2ccnc(Nc3cc4c(cc3F)c(=O)c(C(=O)O)cn4C3CC3)n2)cc1 | 2 (≈ 4.5 µM) | > 64 | – | – | – |
| Cc1ccc(Cc2ccnc(Nc3cc4c(cc3F)c(=O)c(C(=O)O)cn4C3CC3)n2)cc1C | 2 (≈ 4.36 µM) | > 64 | 25 (≈ 54.5 µM) | 25 (≈ 54.5 µM) | – |
| COc1ccc(Cc2ccnc(Nc3cc4c(cc3F)c(=O)c(C(=O)O)cn4C3CC3)n2)cc1 | 4 (≈ 8.69 µM) | > 64 | – | – | – |
| O=C(O)c1cn(C2CC2)c2cc(Nc3nccc(Cc4ccc(Cl)cc4)n3)c(F)cc2c1=O | 1 (≈ 2.15 µM) | > 64 | 3.12 (≈ 6.71 µM) | 1.56 (≈ 3.36 µM) | – |

| Structure (SMILES) | MIC (Staphylococcus aureus [1]) [µg/mL] | MIC (Escherichia coli) [µg/mL] | MIC (Staphylococcus aureus [2]) [µg/mL] | MIC (Staphylococcus aureus [3]) [µg/mL] | also measured |
| --- | --- | --- | --- | --- | --- |
| C[C@H]1COc2c(N3CCN(C)CC3)c(F)cc3c(=O)c(C(=O)O)cn1c23 [LEVOFLOXACIN ANHYDROUS] | – | – | 25 (≈ 69.2 µM) | 0.2 (≈ 0.553 µM) | – |
| CN[C@H](CC(C)C)C(=O)N[C@H]1C(=O)N[C@@H](CC(N)=O)C(=O)N[C@H]2C(=O)N[C@H]3C(=O)N[C@H](C(=O)N[C@H](C(=O)O)c4cc(O)cc(O)c4-c4cc3ccc4O)[C@H](O)c3ccc(c(Cl)c3)Oc3cc2cc(c3O[C@@H]2O[C@H](CO)[C@@H](O)[C@H](O)[C@H]2O[C@H]2C[C@](C)(N)[C@H](O)[C@H](C)O2)Oc2ccc(cc2Cl)[C@H]1O [VANCOMYCIN] | – | > 64 | 3.12 (≈ 2.15 µM) | 0.78 (≈ 0.538 µM) | Activity (Staphylococcus aureus [12]): inactive |
| O=C(O)c1cn(C2CC2)c2cc(Nc3nccc(Cc4ccc(Cl)cc4Cl)n3)c(F)cc2c1=O | 0.5 (≈ 1 µM) | > 64 | 3.12 (≈ 6.25 µM) | 3.12 (≈ 6.25 µM) | – |
| O=C(O)c1cn(C2CC2)c2cc(Nc3nccc(Cc4cccc(Cl)c4)n3)ccc2c1=O | 0.5 (≈ 1.12 µM) | > 64 | 1.56 (≈ 3.49 µM) | 1.56 (≈ 3.49 µM) | – |
| O=C(O)c1cn(C2CC2)c2cc(Nc3nccc(Cc4ccccc4F)n3)c(F)cc2c1=O | 2 (≈ 4.46 µM) | > 64 | – | – | – |
| O=C(O)c1cn(C2CC2)c2cc(Nc3nccc(Cc4ccc(F)cc4)n3)c(F)cc2c1=O | 2 (≈ 4.46 µM) | > 64 | – | – | – |
| O=C(O)c1cn(C2CC2)c2cc(Nc3nccc(Cc4ccc(Cl)cc4Cl)n3)ccc2c1=O | 0.25 (≈ 0.519 µM) | > 64 | 0.78 (≈ 1.62 µM) | 0.39 (≈ 0.81 µM) | – |
| COc1ccccc1Cc1ccnc(Nc2cc3c(cc2F)c(=O)c(C(=O)O)cn3C2CC2)n1 | 4 (≈ 8.69 µM) | > 64 | – | – | – |
| O=C(O)c1cn(C2CC2)c2cc(Nc3nccc(Cc4ccc(F)cc4F)n3)c(F)cc2c1=O | 1 (≈ 2.14 µM) | > 64 | 3.12 (≈ 6.69 µM) | 3.12 (≈ 6.69 µM) | – |
| Cc1ccc(Cc2ccnc(Nc3ccc4c(=O)c(C(=O)O)cn(C5CC5)c4c3)n2)c(C)c1 | 1 (≈ 2.27 µM) | > 64 | 1.56 (≈ 3.54 µM) | 1.56 (≈ 3.54 µM) | – |
| O=C(O)c1cn(C2CC2)c2cc(Nc3nccc(Cc4ccc(Cl)c(Cl)c4)n3)ccc2c1=O | 0.5 (≈ 1.04 µM) | > 64 | 1.56 (≈ 3.24 µM) | 1.56 (≈ 3.24 µM) | – |
| O=C(O)c1cn(C2CC2)c2cc(Nc3nccc(Cc4ccc(Cl)c(Cl)c4)n3)c(F)cc2c1=O | 0.5 (≈ 1 µM) | > 64 | 6.25 (≈ 12.5 µM) | 6.25 (≈ 12.5 µM) | – |
| O=C(O)c1cn(C2CC2)c2cc(Nc3nccc(Cc4cccc(F)c4)n3)c(F)cc2c1=O | 2 (≈ 4.46 µM) | > 64 | – | – | – |
| Cc1cccc(Cc2ccnc(Nc3cc4c(cc3F)c(=O)c(C(=O)O)cn4C3CC3)n2)c1 | 4 (≈ 9 µM) | > 64 | – | – | – |
| Cc1ccc(Cc2ccnc(Nc3ccc4c(=O)c(C(=O)O)cn(C5CC5)c4c3)n2)cc1C | 0.5 (≈ 1.14 µM) | > 64 | 0.78 (≈ 1.77 µM) | 0.78 (≈ 1.77 µM) | half-life at 1 µM [4]: 59.2 min; Activity (A549): Toxic; remaining at 1 h, 1 µM [5]: 49.6%; CLint scaled at 1 µM [13]: 26.6 mL/min/kg; remaining at 1 h, 1 µM [6]: 41.1%; half-life at 1 µM [7]: 49.4 min; microsomal CLint at 1 µM [8]: 23.4 µL/min/mg; Activity (HEK293): Toxic; k el at 1 µM [9]: 0.000233 s⁻¹; microsomal CLint at 1 µM [10]: 28.2 µL/min/mg; CLint scaled at 1 µM [14]: 42.2 mL/min/kg; k el at 1 µM [11]: 0.0002 s⁻¹ |
| O=C(O)c1cn(C2CC2)c2cc(Nc3nccc(Cc4cccc(Cl)c4)n3)c(F)cc2c1=O | 2 (≈ 4.3 µM) | > 64 | 6.25 (≈ 13.4 µM) | 6.25 (≈ 13.4 µM) | – |

— ChEMBL document CHEMBL5500358, “Identification of CH2-linked quinolone-aminopyrimidine hybrids as potent anti-MRSA agents: Low resistance potential and lack of cross-resistance with fluoroquinolone antibiotics” (Eur J Med Chem, 2024)
